Measurements taken from paper PMC5765747 (Advanced materials (Deerfield Beach, Fla.), 2017).
In brackets after ≈: the same amount, converted by molar mass. Where a SMILES comes first, the peptide text is derived from it. Bridges are numbered along the chain shown (N, C = ends). [ ]: non-standard residue; d: D form. The star is where a group is joined. X1 = CC[C@H](C)CCCCC(=O)*; Dab = NCC[C@H](N)C(=O)O

System: P. aeruginosa PA01
Test: Overnight culture growth assay
Type: cell-based

| Compound | MIC (P. aeruginosa in LB, 2×10^6 CFU/ml, turbidity at 600 nm) | inhibitory activity against P. aeruginosa in screening range (peptide concentration range 0 – 5 µM, Figure S1) |
| --- | --- | --- |
| CC[C@H](C)CCCCC(=O)N[C@@H](CCN)C(=O)N[C@H](C(=O)N[C@@H](CCN)C(=O)N[C@H]1CCNC(=O)[C@H]([C@@H](C)O)NC(=O)[C@H](CCN)NC(=O)[C@H](CCN)NC(=O)[C@H](CC(C)C)NC(=O)[C@@H](CC(C)C)NC(=O)[C@H](CCN)NC1=O)[C@@H](C)O [colistin] (X1-[Dab]T[Dab][Dab][Dab][dL]L[Dab][Dab]T; lactam 4-C (inferred); N-terminus assumed) | 0.25 µg/mL (≈ 0.214 µM) |  |
| D[KLAKLAK]2 [dKK] |  | no activity |
